What was measured:
[1] = Sodium Influx Assay (In Vitro Assay): This sodium influx assay employs the use of the cell permeable, sodium sensitive dye ANG2 to quantify sodium ion influx through sodium channels which are maintained in an open state by use of sodium channel modulators. This high throughput sodium influx assay allows for rapid profiling and characterization of sodium channel blockers.In general, Trex HEK293 …
[2] = molecular target: Sodium channel protein type 8 subunit alpha (Homo sapiens, UniProt Q9UQD0); assay: as above
Sequence of Sodium channel protein type 8 subunit alpha (Q9UQD0 whole entry): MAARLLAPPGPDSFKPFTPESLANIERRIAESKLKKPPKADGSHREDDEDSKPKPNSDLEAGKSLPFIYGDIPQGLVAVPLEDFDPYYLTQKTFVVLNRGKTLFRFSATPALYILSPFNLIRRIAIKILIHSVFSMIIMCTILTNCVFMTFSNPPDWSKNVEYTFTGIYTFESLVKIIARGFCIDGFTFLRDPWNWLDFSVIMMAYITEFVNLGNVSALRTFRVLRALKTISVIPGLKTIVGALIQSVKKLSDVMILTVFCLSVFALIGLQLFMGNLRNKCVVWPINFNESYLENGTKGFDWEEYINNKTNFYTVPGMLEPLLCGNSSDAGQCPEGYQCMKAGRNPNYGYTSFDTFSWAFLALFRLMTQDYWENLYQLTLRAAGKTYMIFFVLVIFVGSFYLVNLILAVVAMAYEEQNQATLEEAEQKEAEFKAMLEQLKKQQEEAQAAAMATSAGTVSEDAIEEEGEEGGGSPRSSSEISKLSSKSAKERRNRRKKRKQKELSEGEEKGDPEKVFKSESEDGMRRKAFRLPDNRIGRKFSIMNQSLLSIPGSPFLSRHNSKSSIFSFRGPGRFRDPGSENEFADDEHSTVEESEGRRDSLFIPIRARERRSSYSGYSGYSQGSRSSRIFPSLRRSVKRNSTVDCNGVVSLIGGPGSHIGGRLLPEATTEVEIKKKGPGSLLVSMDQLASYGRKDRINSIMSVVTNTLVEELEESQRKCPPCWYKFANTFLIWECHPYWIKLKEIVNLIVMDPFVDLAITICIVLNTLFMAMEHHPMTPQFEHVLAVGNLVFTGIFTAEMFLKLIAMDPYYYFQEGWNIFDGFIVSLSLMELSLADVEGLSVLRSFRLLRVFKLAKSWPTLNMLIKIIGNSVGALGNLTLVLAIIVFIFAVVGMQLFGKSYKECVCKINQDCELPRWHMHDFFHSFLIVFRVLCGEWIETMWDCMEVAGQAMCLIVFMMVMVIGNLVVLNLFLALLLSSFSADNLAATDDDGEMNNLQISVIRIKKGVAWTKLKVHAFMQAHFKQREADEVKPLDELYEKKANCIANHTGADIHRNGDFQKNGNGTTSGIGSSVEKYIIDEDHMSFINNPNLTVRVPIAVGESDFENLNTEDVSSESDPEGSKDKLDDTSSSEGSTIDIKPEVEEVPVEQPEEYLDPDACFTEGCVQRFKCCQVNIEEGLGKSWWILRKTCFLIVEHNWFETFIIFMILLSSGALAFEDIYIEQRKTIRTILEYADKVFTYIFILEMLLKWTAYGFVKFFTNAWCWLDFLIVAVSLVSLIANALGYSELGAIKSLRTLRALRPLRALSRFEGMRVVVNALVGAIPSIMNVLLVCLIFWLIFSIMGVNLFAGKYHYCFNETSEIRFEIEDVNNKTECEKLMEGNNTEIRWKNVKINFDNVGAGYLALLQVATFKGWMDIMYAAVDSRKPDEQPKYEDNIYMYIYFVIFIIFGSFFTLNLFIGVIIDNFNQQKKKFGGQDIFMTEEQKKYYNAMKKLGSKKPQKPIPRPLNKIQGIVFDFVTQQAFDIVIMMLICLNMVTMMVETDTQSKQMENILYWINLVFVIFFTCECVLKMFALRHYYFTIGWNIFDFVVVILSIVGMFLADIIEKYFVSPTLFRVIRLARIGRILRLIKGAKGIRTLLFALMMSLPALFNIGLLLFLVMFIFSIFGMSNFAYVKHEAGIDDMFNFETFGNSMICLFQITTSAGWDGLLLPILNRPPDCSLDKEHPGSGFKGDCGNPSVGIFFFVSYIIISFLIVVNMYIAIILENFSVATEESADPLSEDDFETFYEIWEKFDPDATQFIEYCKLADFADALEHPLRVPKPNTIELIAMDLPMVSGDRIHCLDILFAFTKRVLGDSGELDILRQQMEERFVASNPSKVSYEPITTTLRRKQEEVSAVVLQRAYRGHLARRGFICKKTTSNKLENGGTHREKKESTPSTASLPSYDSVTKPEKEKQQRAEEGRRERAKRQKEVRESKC

Row | SMILES | IC50 [1] | IC50 [2]
1 | Cc1cc(S(=O)(=O)Nc2cccc(F)n2)ncc1NCc1c(F)cccc1CN1CCCC1 | 28.8 µM | –
2 | Cc1nc(NCc2c(F)cccc2CN2CCCC2)ccc1S(=O)(=O)Nc1cscn1 | 6.18 µM | –
3 | Cc1nc(S(=O)(=O)Nc2cscn2)c(F)cc1NCc1c(F)cccc1CN1C2CCC1CC2 | – | 0.037 µM
